Results published in US10894777B2, “TG2 inhibitor piperazine compounds and uses thereof” (UNIVERSITY OF OTTAWA, priority 2016, dated 2021).

Legend:
hTG6 = hTG6 (Homo sapiens, UniProt O95932); experiment: Colorimetric transamidase activity assay (AL5 substrate), hTG6; assay type: biochemical
Experimental: (§1) Selectivity of certain irreversible inhibitors over other members of the transglutaminase family was assessed. […] Inhibitors were tested using a continuous colorimetric assay (Leblanc, A. et al., Biochemistry (2001), 40 (28): 8335-8342) for hTG1 and hTG6 and a commercially available continuous fluorescent assay that utilizes a peptidic FRET quenched substrate (Oertel, K. et al., Anal. Biochem. (2007), 367 (2): 152-158; Király, R. et al., Amino Acids (2016), 48 (1): 31-40) for the other transglutaminases, FXIIIa and hTG3. The rate constant of enzyme inactivation (kobs) for a specific concentration of inhibitor was obtained using Kitz and Wilson conditions (Kitz, R. et al., J. Biol. Chem. (1962), 237: 3245-49). Inhibitor concentrations were adjusted to account for competition with substrates in each enzymatic reaction.
In Vitro Assays. Colorimetric transamidase activity assay.

FXIIIa = molecular target: T1, FXIIIa (Homo sapiens, UniProt P00488); experiment: Fluorescence isopeptidase activity assay (A101 probe), FXIIIa; assay type: biochemical
T1 construct: purchased Zedira
Experimental: as §1
Fluorescence isopeptidase activity assay. The isopeptidase activity of pre-activated TG3a and FXIIIa (purchased from Zedira) was measured via a fluorescence-based assay (Király, R. et al., Amino Acids (2016), 48 (1): 31-40) using the commercially available peptidic FRET quenched probe A101 from Zedira. Briefly, the final concentration in the reaction mixture contained 50 mM Tris (pH 7.0), 10 mM CaCl2, 100 mM NaCl, 2.8 mM TCEP, 50 μM A101 and 14 mM H-Gly-OMe. The reaction was monitored at 25° C. using a BioTek Synergy 4 plate reader (Ex/Em: 318/413 nm).

R580A-TG2 = molecular target: T2, R580A-TG2 (Homo sapiens, UniProt P21980, R580A); experiment: In situ transamidating assay, SH-SY5Y cells stably overexpressing R580A-TG2; assay type: cell-based; details: 10 μM, 16-20 h, no calcium stimulation
T2 construct: expressed in transfected cells
T2 sequence (P21980 1-687 R580A): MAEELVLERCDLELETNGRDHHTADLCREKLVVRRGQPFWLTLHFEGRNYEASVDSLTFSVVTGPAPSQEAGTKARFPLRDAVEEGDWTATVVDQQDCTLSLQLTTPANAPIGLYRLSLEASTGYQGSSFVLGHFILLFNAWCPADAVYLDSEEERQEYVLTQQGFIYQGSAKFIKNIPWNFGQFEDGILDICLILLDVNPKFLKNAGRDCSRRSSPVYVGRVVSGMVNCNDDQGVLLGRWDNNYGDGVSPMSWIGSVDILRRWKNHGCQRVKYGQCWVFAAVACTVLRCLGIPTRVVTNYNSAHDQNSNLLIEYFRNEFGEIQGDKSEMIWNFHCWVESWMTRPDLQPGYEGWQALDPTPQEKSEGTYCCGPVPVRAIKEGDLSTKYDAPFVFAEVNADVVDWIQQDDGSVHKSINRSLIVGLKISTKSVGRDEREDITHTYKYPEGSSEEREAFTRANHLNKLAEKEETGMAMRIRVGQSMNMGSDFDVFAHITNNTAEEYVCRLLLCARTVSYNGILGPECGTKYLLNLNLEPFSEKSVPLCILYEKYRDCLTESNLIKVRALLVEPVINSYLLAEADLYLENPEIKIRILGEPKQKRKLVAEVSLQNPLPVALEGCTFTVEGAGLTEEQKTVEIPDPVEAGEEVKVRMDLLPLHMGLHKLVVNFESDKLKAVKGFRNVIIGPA
Experimental: These inhibitors were then tested in cell culture models for their efficiency in inhibiting in situ transamidating activity. […] For these studies we used SH-SY5Y neuroblastoma cells stably overexpressing R580A-TG2.
In situ transglutaminase assay. In situ transamidating activity measurement was conducted as described previously (Gundemir, S. and Johnson, G. V., PLoS ONE 4(7):e6123, 2009) with slight modifications. Briefly, 24 h after transfection of HEK 293A cells, normal growth media was changed to fresh growth media with 5% FBS containing given amount of ionomycin (0-1.5 μM) and 0.1 mM 5-(biotinamido)pentylamine (BAP) (Pierce). 3 h later, cells were collected in media, pelleted, washed once with PBS and resuspended in homogenization buffer (50 mM Tris-Cl, pH: 7.5, 150 mM NaCl, 1 mM EDTA), sonicated on ice. In a high protein binding 96-well plate (Falcon), 10 μg of protein was loaded in a total of 50 μL homogenization buffer and the plate was incubated at 4° C. overnight. The next day, 200 μL of blocking buffer (5% BSA, 0.01% Tween 20 in borate saline [100 mM boric acid, 20 mM Na-borate and 0.76 mM NaCl]) was added to each sample and the plate was incubated at 37° C. for 1 h. Each well was then rinsed 3 times with rinsing buffer (1% BSA, 0.01% Tween 20 in borate saline) and incubated with 1 μg/μL Horseradish peroxidase conjugated neutravidin (Pierce) in a total of 100 μL rinsing buffer at room temperature for 1 h. The samples were washed 4 times with rinsing buffer, and peroxidase reaction was conducted in the dark in 200 μL of OPD buffer (50 mL of 0.1 M Na2HPO4, 50 mM citric acid, 1 tablet o-phenylenediamine (Sigma Aldrich), 0.0006% H2O2). After 20 minutes, the reaction was stopped by addition of 50 μL of 1 M sulfuric acid and read at 493 nm wavelength.

U87 cells = experiment: Agarose colony formation assay, U87 cells; assay type: cell-based, human; details: 10 μM, 2 weeks
Experimental: Agarose colony formation assay. Agarose colony formation assay was conducted as described (Horman, S. R. et al., J. Biomol. Screen 18(10):1298-308, 2013; Zhang, K. et al., Tumour Biol. 35(3):2537-48, 2014) using 6-well plates and 5,000 cells in each well. 10 μM NC9 or DMSO was added to every layer at the start of the experiments. 2 mL liquid MEM containing 10 μM NC9 or DMSO was used to cover the agarose and it was changed 3 times a week. Colony growth was monitored every day and at the end of 10-15 days, the colonies were fixed with 4% paraformaldehyde, stained with 0.005% crystal violet, washed with PBS twice and 40 random pictures were taken from each treatment group. A person blinded for the treatments measured the area of the colonies using ImageJ program and the volumes were calculated from the area data under the assumption that the colonies are perfect spheres. The volumes were used to compare the effect of NC9 on colony growth.

[1] = Table 9, Kitz and Wilson conditions

hTG6, sequence (O95932 whole entry): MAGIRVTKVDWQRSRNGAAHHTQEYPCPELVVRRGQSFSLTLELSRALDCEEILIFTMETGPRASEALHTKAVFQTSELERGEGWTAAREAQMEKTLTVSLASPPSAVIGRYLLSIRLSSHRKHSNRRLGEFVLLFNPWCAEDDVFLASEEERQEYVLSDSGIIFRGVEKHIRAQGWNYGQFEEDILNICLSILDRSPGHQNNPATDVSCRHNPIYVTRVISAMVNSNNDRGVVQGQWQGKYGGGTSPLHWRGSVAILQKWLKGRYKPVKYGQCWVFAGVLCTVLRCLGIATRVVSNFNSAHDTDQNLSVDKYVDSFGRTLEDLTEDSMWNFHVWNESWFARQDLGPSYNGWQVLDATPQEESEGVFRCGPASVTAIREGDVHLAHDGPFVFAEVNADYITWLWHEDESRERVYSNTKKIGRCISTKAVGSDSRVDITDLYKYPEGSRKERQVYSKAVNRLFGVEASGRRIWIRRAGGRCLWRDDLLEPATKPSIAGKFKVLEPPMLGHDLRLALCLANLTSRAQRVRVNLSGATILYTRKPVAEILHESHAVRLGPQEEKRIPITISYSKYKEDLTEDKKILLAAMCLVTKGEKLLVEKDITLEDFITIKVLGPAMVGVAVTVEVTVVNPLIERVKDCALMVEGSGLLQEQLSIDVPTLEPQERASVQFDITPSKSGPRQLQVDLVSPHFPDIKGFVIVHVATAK
T1 sequence (P00488 39-732 limits assumed): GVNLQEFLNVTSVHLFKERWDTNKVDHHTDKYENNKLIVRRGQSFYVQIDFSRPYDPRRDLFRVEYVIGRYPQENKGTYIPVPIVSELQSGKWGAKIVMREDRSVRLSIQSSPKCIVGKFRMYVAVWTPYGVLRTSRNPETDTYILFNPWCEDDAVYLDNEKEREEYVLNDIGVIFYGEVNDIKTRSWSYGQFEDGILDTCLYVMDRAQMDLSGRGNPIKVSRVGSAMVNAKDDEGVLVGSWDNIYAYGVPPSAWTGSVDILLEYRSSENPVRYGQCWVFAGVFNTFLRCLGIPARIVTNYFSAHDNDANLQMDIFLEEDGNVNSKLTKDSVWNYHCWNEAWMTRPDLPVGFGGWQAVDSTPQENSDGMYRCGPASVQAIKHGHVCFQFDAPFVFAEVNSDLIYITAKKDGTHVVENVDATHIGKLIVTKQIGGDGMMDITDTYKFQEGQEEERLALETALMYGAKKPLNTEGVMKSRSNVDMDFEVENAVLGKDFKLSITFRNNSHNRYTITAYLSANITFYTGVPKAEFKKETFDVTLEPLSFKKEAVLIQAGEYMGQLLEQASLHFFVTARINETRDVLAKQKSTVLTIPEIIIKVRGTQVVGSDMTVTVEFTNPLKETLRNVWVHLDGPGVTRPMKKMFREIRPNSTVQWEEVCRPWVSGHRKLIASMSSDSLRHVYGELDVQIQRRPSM

Row | SMILES | kobs (10^−3 min^−1), TG6 (hTG6; [1]) | kobs (10^−3 min^−1), FXIIIa (FXIIIa; [1]) | resting (basal) transamidating activity of R580A-TG2 (R580A-TG2) | colony growth, U87 (U87 cells) | inhibition of hTG6 (hTG6) | less reactive with FXIIIa compared to hTG2 (FXIIIa; from kobs) [fold]
1 | C=CC(=O)NCCCC[C@H](NC(=O)OCc1ccccc1)C(=O)NCCOCCOCCNS(=O)(=O)c1cccc2c(N(C)C)cccc12 [NC9] | 6.16 ± 0.14 10^−3 min^−1 | 5.91 ± 1.59 10^−3 min^−1 | inhibit resting transamidating activity of R580A-TG2 | significantly reduced the growth | – | –
2 | C=CC(=O)NCCCC[C@H](NC(=O)OCc1ccccc1)C(=O)N1CCN(S(=O)(=O)c2cccc3c(N(C)C)cccc23)CC1 [VA4, (S)-benzyl(6-acrylamido-1-(4-((5-(dimethylamino)naphthalen-1-yl)sulfonyl)piperazin-1-yl)-1-oxohexan-2-yl)carbamate] | – | – | inhibit resting transamidating activity of R580A-TG2 | inhibited colony growth | no inhibition was observed | 80
3 | C=CC(=O)NCCCC[C@H](NC(=O)OCc1ccccc1)C(=O)N1CCN(C(=O)c2cc3ccc(O)cc3oc2=O)CC1 [VA5, (S)-Benzyl(6-acrylamido-1-(4-(7-hydroxy-2-oxo-2H-chromene-3-carbonyl)piperazin-1-yl)-1-oxohexan-2-yl)carbamate] | – | – | inhibit resting transamidating activity of R580A-TG2 | promoted it | – | –
